Measured values as given in patent US5922887A, “Diaryldiamine derivatives and their use as delta opiod (ANT)-agonists” (SmithKline Beecham SpA, priority 1995, dated 1999).
pIC50, pKi: −log10 of the molar value. Structures can show the parent of a compound that is named as a salt.

Tests used:
[1] = biological target: T1, delta opioid receptor (Mus musculus, UniProt P32300); assay: radioligand binding assay, delta receptor ([3H]-DADLE, mouse brain membranes); details: [3H]-DADLE 1.3 nM in presence of 40 nM DAMGO, read-out: Ki δ
Protocol: (§1) The activity of the compounds of the present invention as selective delta ligands is determined in radioligand binding assays as described below.
(§2) Mouse brain membranes were prepared as described by Kosterlitz (Br. J. Pharmacol., 1981, 73, 939.). The binding of the preferential delta ligand [^3 H]-[D-Ala^2, D-Leu^5 ]-enkephalin (DADLE) was evaluated at its KD concentration (1.3 nM) in presence of 40 nM of the unlabelled mu ligand [D-Ala^2, MePhe^4, Gly-ol^5 ]-enkephalin (DAMGO). The binding of the mu ligand [^3 H]-DAMGO (Eur. J. Pharmacol., 1989, 166, 213) and of the kappa ligand [^3 H]-U69593 (Excerpta Medica, 1990, 211) were carried out at 0.5 nM. The non-specific binding was determined in presence of naloxone (10 μM) for all tritiated ligands. Binding data were expressed as percentage of inhibition and fitted the following equation: f(x)=100·X/(IC50 +X) where X are cold drug concentration values. The IC50 obtained were used to calculate the inhibitory constants (Ki) accordingly to the Cheng and Prusoff relation (Biochenl. Pharmaco., 1973, 22, 3099).

[2] = biological target: T1, delta opioid receptor; assay: mouse vas deferens (MVD) bioassay, delta agonist/antagonist activity; parameters: Vasa deferentia were obtained from CD-1 mice; from tissue; host or cells: vas deferens of CD-1 mice
Protocol: The delta agonist/antagonist activity of the compounds of the present invention is determined in the mouse vas deferens (MVD) bioassay as described below.
Vasa deferentia were obtained from CD-1 mice and were suspended in a Mg^2+ -free Krebs buffer at 37° C. The tissues were electrically stimulated with pulse trans having the following parameters: train duration 50 ms, stimulus duration 2 ms, frequency of stimuli 50 Hz, maximal voltage 60-70 V, train frequency 0.1 Hz. Concentration response curves for each compounds were constructed cumulatively. Linear regression analysis and IC50 concentrations were evaluated according to Tallarida and Murray (Manual of Pharmacological Calculations, Springer Verlag N.Y., 1981).

[3] = biological target: T2, mu opioid receptor (Mus musculus, UniProt P42866); assay: radioligand binding assay, mu receptor ([3H]-DAMGO, mouse brain membranes); details: selectivity ratio mu over delta
T2 construct: Mouse brain membranes were prepared as described by Kosterlitz; from tissue; host or cells: mouse brain membranes
Protocol: as §1, §2

[4] = biological target: T3, kappa opioid receptor (Mus musculus, UniProt P33534); assay: radioligand binding assay, kappa receptor ([3H]-U69593, mouse brain membranes); details: selectivity ratio kappa over delta
T3 construct: Mouse brain membranes were prepared as described by Kosterlitz; from tissue; host or cells: mouse brain membranes
Protocol: as §1, §2

T1 sequence (P32300 whole entry): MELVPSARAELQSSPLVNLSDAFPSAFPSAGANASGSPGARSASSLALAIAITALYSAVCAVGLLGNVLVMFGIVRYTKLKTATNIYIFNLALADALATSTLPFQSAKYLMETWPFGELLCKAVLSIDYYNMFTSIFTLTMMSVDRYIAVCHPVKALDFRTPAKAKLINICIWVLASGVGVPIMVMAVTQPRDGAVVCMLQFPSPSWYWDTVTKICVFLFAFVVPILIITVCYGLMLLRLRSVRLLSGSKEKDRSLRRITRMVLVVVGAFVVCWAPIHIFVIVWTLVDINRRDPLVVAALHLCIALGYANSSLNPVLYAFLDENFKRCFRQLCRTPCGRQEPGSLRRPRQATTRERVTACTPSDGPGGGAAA
T3 sequence (P33534 whole entry): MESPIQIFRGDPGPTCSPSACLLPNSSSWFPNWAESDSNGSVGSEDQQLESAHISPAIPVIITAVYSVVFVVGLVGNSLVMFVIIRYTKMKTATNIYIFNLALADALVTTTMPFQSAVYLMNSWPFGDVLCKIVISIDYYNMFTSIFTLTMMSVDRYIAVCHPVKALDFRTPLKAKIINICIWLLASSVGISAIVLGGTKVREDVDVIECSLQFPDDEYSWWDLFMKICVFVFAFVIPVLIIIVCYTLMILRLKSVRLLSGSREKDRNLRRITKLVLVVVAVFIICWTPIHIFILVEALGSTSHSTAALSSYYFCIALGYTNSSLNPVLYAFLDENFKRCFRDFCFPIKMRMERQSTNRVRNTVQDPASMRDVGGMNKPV
T2 sequence (P42866 whole entry): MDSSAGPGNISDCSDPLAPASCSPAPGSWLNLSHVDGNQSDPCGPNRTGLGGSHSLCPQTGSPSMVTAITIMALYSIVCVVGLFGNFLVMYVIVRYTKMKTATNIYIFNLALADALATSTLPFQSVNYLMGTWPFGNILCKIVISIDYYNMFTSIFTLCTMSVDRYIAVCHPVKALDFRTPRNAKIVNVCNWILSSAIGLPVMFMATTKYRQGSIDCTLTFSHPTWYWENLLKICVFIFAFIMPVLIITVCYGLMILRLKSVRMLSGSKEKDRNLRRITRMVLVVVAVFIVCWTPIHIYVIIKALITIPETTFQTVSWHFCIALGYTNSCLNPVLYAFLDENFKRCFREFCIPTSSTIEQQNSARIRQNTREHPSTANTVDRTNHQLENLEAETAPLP

CCN(CC)C(=O)c1ccc(N(c2cccc(O)c2)C(C)CN2CCCC2)cc1 (racemic) [Example 5, (±)-N,N-diethyl-4-[[N-(3-hydroxyphenyl)-N-(3-pyrrolidinoprop-2-yl)]amino]benzamide citrate]
pKi [1]: 8.41 | shift of the dose-response curve caused by NTI ([2]; 30 nM of NTI (naltrindole)): 10 fold | pIC50 ([2]; electrically stimulated CD-1 mouse vas deferens, 37° C., delta agonists): 8.15

CCN(CC)C(=O)c1ccc(N(c2cccc(O)c2)C(C)CN(C)C)cc1 (racemic) [Example 9, (±)-N,N-diethyl-4-[[N-(3-dimethylaminoprop-2-yl)-N-(3-hydroxyphenyl)]amino]benzamide oxalate]
pKi [1]: 8.41 | Ki μ/Ki δ [3]: 148 | Ki κ/Ki δ [4]: 153
